Measurements reported in EP4111863A1, “PHOSPHORUS USE EFFICIENCY ENHANCERS AS PLANT GROWTH PROMOTORS” (EuroChem Antwerpen, priority 2021, dated 2023).

Tested on: SPX1
Assay: Chemical activity assessment: SPX1 phosphate starvation biomarker, pSPX1::GUS reporter line, GUS stained area
Assay type: in vivo, Arabidopsis thaliana
Settings: 50 µM compound, low phosphate modMS liquid medium, 7 days after germination, low phosphate control average of the same plate
Protocol: All Arabidopsis plant experiments were performed using the Arabidopsis thaliana Columbia-0 background. The Arabidopsis pSPX1::GUS line is described in the […] 2008, 54: 965-975. For rice, the cultivar Nipponbare was used. For maize, the cultivars DKC 2931 and B104 were used for regular pot experiments and sand-based pot experiments, respectively. For soybean, the cultivar Primus was used. […] The medium was solidified due to the addition of 0,6% Gelrite, unless stated otherwise. In case of vertical plates (root length and root hair measurements), the medium was supplied with 0.5% of sucrose and 1 µM (low phosphate, 1 µM KH2PO4, 9.9 mM KCI), 10 µM (low phosphate 10 µM KH2PO4, 9.9 mM KCI) or 1.25 mM KH2PO4 (high phosphate). Arabidopsis seeds were stratified for 2 days at 4 °C before germination. Seedlings were germinated in climate-controlled growth chambers at 22 °C under continuous light (100 µmol m^-2 s^-1). Husked rice seeds were germinated on wetted Whatman paper for 2 days at 37 °C and then transferred to Sterivent boxes or square Petri dishes with solid medium. Maize and soybean seeds were wetted 24 hours at room temperature prior to sowing in pots.
For the chemical activity assessment 3 to 8 seeds per well of Arabidopsis pSPX1::GUS line were sown in 96-well plates containing 150 µl of low phosphate modMS liquid medium containing 1% of sucrose. Compounds were added in 50 µM concentration, starting from a 5 mM stock of compounds solved in DMSO. Different chemical substances were separately added to different wells. Per plate, 16 control wells were used, 8 containing only the low phosphate medium and 1% DMSO, and 8 containing high phosphate medium and 1% DMSO. 7 days after germination, plates were scanned using a flatbed scanner (EPSON Expression 11000XL) and analyzed for leaf size. After scanning, the growth medium was replaced by GUS staining solution (see Plant Mol. Biol. Rep. 1994, 12: 37-42 for details) and incubated for 1.5 hours at 37 °C. The plates were scanned a second time and analyzed for GUS signal area. Measurements of both leaf area and GUS signal area were conducted by filtering out and measure the green and blue signal, respectively using ImageJ software. If the green leaf area was 50% or less than the control, samples were omitted. Additionally, all results were visually screened for leaf size and GUS signal.

| Structure (SMILES) | GUS (SPX1) stained area normalized to the number of seeds (pixels) (Table 3) | GUS (SPX1) stained area normalized to the number of seeds (pixels) (Table 2) |
| --- | --- | --- |
| NC(=O)C1CN(c2ncc(Br)cn2)CCO1 (stereo not drawn) | 17 pixels | – |
| O=S(=O)(N1CCOCC1)N1CCN(Cc2noc(-c3ccc(F)cc3)n2)CC1 | 19 pixels | – |
| O=C(O)c1cc(Cl)nc(N2CCOCC2)c1 | 0 pixels | – |
| CC1CN(Cn2nc(-c3cccs3)nc2S)C(C)CO1 (stereo not drawn) | 9 pixels | – |
| O=C(NC1COc2ccccc21)N1CCOC(c2ccc(Cl)cc2)C1 (stereo not drawn) | 8 pixels | – |
| CC1(C)CN(Cc2ccc(-n3ccnc3)cc2)CCO1 | 16 pixels | – |
| CCc1nnsc1C(=O)NCc1ccccc1N1CCOCC1 | 13 pixels | – |
| Cc1ccc(C(C)C)c(OCCNCCN2CCOCC2)c1 | 40 pixels | – |
| CN1CCOC(C(=O)N2CCN(CC3CC3)c3ccccc32)C1 (stereo not drawn) | 64 pixels | – |
| CCCc1csc(NC(=O)N2CCOC3(CCC3)C2)n1 | 49 pixels | – |
| NC(=O)C1COCCN1c1cnc2cc(Cl)c(Cl)cc2n1 (stereo not drawn) | 3 pixels | – |
| Brc1cc(CN2CCOC(Cn3cccn3)C2)cs1 (stereo not drawn) | 21 pixels | – |
| Cc1c(C(=O)NCC2CN(CC(C)C)CCO2)cnn1C (stereo not drawn) | 9 pixels | – |
| CC(C)CCNC(=O)c1cc(S(=O)(=O)N2CCOCC2)cn1C | 1 pixels | – |
| O=C1Nc2ccccc2SC1Nc1ccc(F)c(S(=O)(=O)N2CCOCC2)c1 (stereo not drawn) | 3 pixels | – |
| Cc1nnc(NC(=O)N2CC(C)OC(c3ccsc3)C2)s1 (stereo not drawn) | 20 pixels | – |
| Fc1ccc(-c2nnc(SCc3ccc4ccccc4n3)n2CCN2CCOCC2)cc1 | 22 pixels | – |
| O=C(c1cccs1)C(C(c1ccc(Cl)cc1)N1CCOCC1)N1CCOCC1 (stereo not drawn) | 3 pixels | – |
| CN(C)c1nc(CN2CCOCC2CC(=O)c2ccco2)ns1 (stereo not drawn) | 330 pixels | – |
| NC(=O)C1CN(C(=O)C2(c3cccc(C(F)(F)F)c3)CC2)CCO1 (stereo not drawn) | 349 pixels | – |
| Cc1csc(C2CN(Cc3csc(C(C)(C)C)n3)CCO2)n1 (stereo not drawn) | 1 pixels | – |
| Cc1ccc(C2CN(Cc3cc(-c4ccco4)on3)CCO2)c(C)c1 (stereo not drawn) | 15 pixels | – |
| CC(Nc1cnn(CCN2CCOCC2)c1)c1nccs1 (stereo not drawn) | 25 pixels | – |
| C=CCCN1CC(C(=O)OC)O[C@H](C)C1 (stereo partly drawn) | 5 pixels | – |
| Brc1ccc(CN2CCOC(Cn3cccn3)C2)s1 (stereo not drawn) | 10 pixels | – |

| Structure (SMILES) | GUS (SPX1) stained area normalized to the number of seeds (pixels) (Table 3) | GUS (SPX1) stained area normalized to the number of seeds (pixels) (Table 2) |
| --- | --- | --- |
| Cc1nnc(CN2CCOCC2c2cccn2C)o1 (stereo not drawn) | 50 pixels | – |
| CN1CCOC2CN(Cc3cc(O)ccc3Br)CC21 (stereo not drawn) | 12 pixels | – |
| CN(Cc1ccccc1N1CCOCC1)C(=O)C12CC3CC(CC(C3)C1)C2 | 3 pixels | – |
| O=C(Nc1ccc(F)c(C(F)(F)F)c1)N1CCOCC1 | 8 pixels | – |
| Cc1cc(C)n(CC2CN(c3ncnc4ccsc34)CCO2)n1 (stereo not drawn) | 44 pixels | – |
| CC1CN(S(=O)(=O)N(CC2CCOC2)C2CC2)CC(C)O1 (stereo not drawn) | 60 pixels | – |
| O=S(=O)(c1ccc(Sc2nnc(-c3ccccc3)c3ccccc23)nc1)N1CCOCC1 | 31 pixels | – |
| Cc1cccn2c(=O)cc(CN3CCOC(c4ccc(F)cc4)C3)nc12 (stereo not drawn) | 19 pixels | – |
| Cc1nc(Cl)cc(N2CCOCC2c2c(C)nn(C)c2C)n1 (stereo not drawn) | 35 pixels | – |
| CN1CCOC(C(=O)NC(c2c(F)cccc2F)C(F)(F)F)C1 (stereo not drawn) | 5 pixels | – |
| CCC1CN(C(=O)C(C)OCC2CC2)CC1N1CCOCC1 (stereo not drawn) | 62 pixels | – |
| C#CCNC(=O)CN1CCOC(CC)C1 (stereo not drawn) | 66 pixels | – |
| COC(=O)C1CN(Cc2sccc2Br)C[C@@H](C)O1 (stereo partly drawn) | 13 pixels | – |
| CC(C)(C)c1n[nH]c(C2CN(C(=O)c3ccc[nH]3)CCO2)n1 (stereo not drawn) | 5 pixels | – |
| CC(C)c1ncsc1C(=O)NCC1CN(C)CCO1 (stereo not drawn) [Compound 4.4] | – | 106 pixels |
| CC(C)Cn1c(SCC(=O)c2ccc(Br)s2)nnc1N1CCOCC1 | 9 pixels | – |
| O=C(Cn1c(NCCO)nc2ccccc21)N1CCOCC1 | 16 pixels | – |
| O=C(C1CN(C(=O)C(c2ccccc2)c2ccccc2)c2ccccc2O1)N1CCOCC1 (stereo not drawn) | 30 pixels | – |
| O=C(COc1cccc(F)c1)Nc1sc2c(c1C(=O)N1CCOCC1)CCCC2 | 10 pixels | – |
| O=C(NCC(c1ccc(F)cc1)N1CCOCC1)C12CC3CC(CC(C3)C1)C2 (stereo not drawn) | 1 pixels | – |
| CSc1nnc(CN2CC(c3ccccc3)OCC2(C)C)s1 (stereo not drawn) | 43 pixels | – |
| Cc1cnn(CC2CN(C(C)C(=O)Nc3cc(C)no3)CCO2)c1 (stereo not drawn) | 7 pixels | – |
| CC(=O)Nc1ccc(Sc2cc(C(=O)N3CCOCC3)c3ccccc3n2)cc1 | 18 pixels | – |
| O=C(CSc1ncnc2sccc12)c1ccc(CC(=O)N2CCOCC2)s1 | 15 pixels | – |
| CC1CN(S(=O)(=O)CCNc2nc(-c3ccncc3)nc3ccccc23)CC(C)O1 (stereo not drawn) | 1 pixels | – |

| Structure (SMILES) | GUS (SPX1) stained area normalized to the number of seeds (pixels) (Table 3) | GUS (SPX1) stained area normalized to the number of seeds (pixels) (Table 2) |
| --- | --- | --- |
| COc1cc(C(C)=O)ccc1OC(=O)N1CCOCC1 | 8 pixels | – |
| CC(C)CC1COCCN1C(=O)Nc1nnc(C(F)(F)F)s1 (stereo not drawn) | 7 pixels | – |
| CC(C)C(NC(=O)C12CC3CC(CC(C3)C1)C2)C(=O)N1CCOCC1 (stereo not drawn) | 14 pixels | – |
| Cc1nc2c(c(C)nn2C)c(C)c1CCC(=O)N1CC(C)OC(C)C1 (stereo not drawn) | 27 pixels | – |
| CCN1CCOC(CNCc2ccc(-n3cncn3)cc2)C1 (stereo not drawn) | 301 pixels | – |
| CC1CN(Cc2csc(NC(=O)c3ccco3)n2)CC(C)O1 (stereo not drawn) | 2 pixels | – |
| CC1CN(C(=O)c2cnn(C)c2C(F)(F)F)CC(C)O1 (stereo not drawn) | 19 pixels | – |
| CC1CN(C(C)(C)CNC(=O)C2CCCN2C2CCN(CC(F)(F)F)CC2)CC(C)O1 (stereo not drawn) | 7 pixels | – |
| N#Cc1c(F)cccc1Sc1nnc(N2CCOCC2)s1 | 35 pixels | – |
| FC(F)(F)Cn1ccnc1CN1CCOC2(CCCC2)C1 | 38 pixels | – |
| CCc1nnc(NC(=O)N2CCOCC2CC(C)C)s1 (stereo not drawn) | 16 pixels | – |
| CC1CN(C(C)c2nc(C3CC3)no2)CCO1 (stereo not drawn) | 441 pixels | – |
| CN(CC1COc2ccccc2O1)c1ccc(S(=O)(=O)N2CCOCC2)cn1 (stereo not drawn) | 0 pixels | – |
| C=CCn1c(SCc2cccc(S(=O)(=O)N3CCOCC3)c2)nc2ccccc21 | 1 pixels | – |
| CCCCS(=O)(=O)N1CCOCC1c1noc(C(C)C)n1 (stereo not drawn) | 73 pixels | – |
| CC1(C)CN(C(=O)c2csc(-c3cccs3)n2)CCO1 | 6 pixels | – |
| Fc1cc(C2CNCCO2)c(Cl)cc1Cl (stereo not drawn) | 27 pixels | – |
| C(=C\c1cc2ccccc2nc1N1CCOCC1)/c1nc2ccccc2s1 | 0 pixels | – |
| Cc1csc(C2CN(Cc3ncc(C(C)(C)C)o3)CCO2)n1 (stereo not drawn) | 5 pixels | – |
| Cc1cnc(CN2CCOC(c3ccc(C(F)(F)F)cc3)C2)o1 (stereo not drawn) | 46 pixels | – |
| CCc1cc(N2CC(C)OCC2c2ccccc2)nc(-c2ccccn2)n1 (stereo not drawn) | 5 pixels | – |
| CC1CN(C(=O)c2csc(-c3ccsc3)n2)C(C)CO1 (stereo not drawn) | 46 pixels | – |
| CC1CN(C(=O)Nc2cc(C(C)C)on2)CC(c2ccsc2)O1 (stereo not drawn) | 23 pixels | – |
| O=C(c1csc(-c2cccs2)n1)N1CCOC2CCCCC21 (stereo not drawn) | 2 pixels | – |
| Cc1cc(I)ccc1NC(=O)CN1CCOC(C)C1 (stereo not drawn) | 17 pixels | – |
